The values below come from US12325697B2 (Nimbus Clio, Inc., priority 2021, dated 2025).

The test deals with Recombinant human Cbl-b (aa 36-427) (Homo sapiens (Human), UniProt Q13191). The test is described as follows: Cbl-b Biochemical Assay (TR-FRET). As to conditions: read-out: TR-FRET hCbl-b IC50. As for the experimental part: Recombinant human Cbl-b (aa 36-427) was expressed in E. coli, purified and biotinylated in vitro. The protein was diluted to 12 nM in freshly prepared assay buffer consisting of 50 mM HEPES, pH 7.0, 100 mM NaCl, 5 mM MgCl2, 0.01% Triton-X 100, 0.01% BSA and 1 mM DTT. Recombinant human Src (aa 254-536)-[…]-Zap-70 (aa 281-297) fusion protein was expressed in E. coli and purified. Protein was diluted in assay buffer to 2-5 nM and supplemented with ATP to 1 mM. Fluorescein-BODIPY labeled UBE[…]([…])-Ub was prepared by conjugating ubiquitin (Ub) labeled at its N-terminus with Fluorescein-BODIPY maleimide (ThermoFisher Catalog no B10250) to E. coli expressed and purified UBE[…]([…]) [see Dou et al Nature Structural and Molecular Biology 8: 982-987, 2013]. Recombinant human UBE2D2([…]) was expressed in E. coli, purified and ubiquitinated and Bodipy labelled in vitro. Protein was diluted to 200 nM in assay buffer without MgCl2 (or Cisbio PPI buffer). Streptavidin-Terbium was added to 2 nM and EDTA to 10 mM, to provide a binding assay mix. Compounds were dissolved in DMSO and diluted to prepare a ten-point dilution series. 100 nl of each compound concentration was dispensed in duplicate in a 384 well black assay plate using acoustic dispensing. Wells for maximum signal controls received 100 nl of DMSO only and wells for minimum signal controls received 100 nl of a reference inhibitor compound at a final assay concentration of […] to produce 100% inhibition. 5 μl of diluted Cbl-b enzyme was added to all wells of the assay plate and incubated at RT for 30-60 min. The enzyme assay was initiated by addition of 5 μl of Src-Zap/ATP mix to all wells, and the plate incubated at RT for 60 min. The enzyme reaction was terminated and the binding reaction was initiated by adding 10 μl of binding assay mix to all wells and incubating the plate at RT for 60 min prior to assay read. Final assay conditions consisted of 6 nM Cbl-b, 1-2.5 nM Src-Zap70, 0.5 mM ATP, 1% (v/v) DMSO (enzyme reaction) and 100 nM UBE2D2([…])-Ub-FL-BODIPY, 5 mM EDTA, 1 nM Streptavidin-Tb (binding reaction). The HTRF assay signal was measured at 520 nm on an Envision plate reader, with reference signal at 485 or 620 nm. Data was normalized using maximum and minimum assay controls: % Inhibition=100-(100*((maximum control)-unknown)/(maximum control-minimum control)). A 4-parameter dose-response equation was used to fit the normalized dose-response data and derive an IC50 for test compounds.
Chain of Recombinant human Cbl-b (aa 36-427) (Q13191 36-427): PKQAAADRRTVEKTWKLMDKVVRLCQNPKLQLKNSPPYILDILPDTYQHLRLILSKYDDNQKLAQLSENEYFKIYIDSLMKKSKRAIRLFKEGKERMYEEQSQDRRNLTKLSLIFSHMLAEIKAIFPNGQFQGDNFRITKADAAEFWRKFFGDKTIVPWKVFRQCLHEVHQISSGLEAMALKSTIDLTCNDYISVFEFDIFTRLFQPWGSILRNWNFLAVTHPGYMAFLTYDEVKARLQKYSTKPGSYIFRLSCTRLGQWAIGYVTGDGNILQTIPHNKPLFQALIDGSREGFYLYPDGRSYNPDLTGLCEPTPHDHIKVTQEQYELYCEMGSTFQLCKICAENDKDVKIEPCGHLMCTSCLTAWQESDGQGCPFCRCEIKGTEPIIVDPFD
Take `CCNc1cc(-c2c(-c3nncn3C)cnn2C)cc(N2Cc3c(cc(CN4CCC5(CC5)C4)cc3C(F)(F)F)C2=O)n1` [ABC-7, 6-((5-Azaspiro [2.4]heptan-5-yl)methyl)-2-(6-(ethylamino)-4-(1-methyl-4-(4-methyl-4H-1,2,4-triazol-3-yl)-1H-pyrazol-5-yl)pyridin-2-yl)-4-(trifluoromethyl)isoindolin-1-one]: the IC50 was less than 200 nM.

Regarding `Cn1cnnc1-c1cnn(C)c1-c1cc(Cl)nc(N2Cc3c(cc(CN4CCC5(CC5)C4)cc3C(F)(F)F)C2=O)c1` [ABD-1, 6-((5-Azaspiro [2.4]heptan-5-yl)methyl)-2-(6-chloro-4-(1-methyl-4-(4-methyl-4H-1,2,4-triazol-3-yl)-1H-pyrazol-5-yl)pyridin-2-yl)-4-(trifluoromethyl)isoindolin-1-one], the IC50 fell in the range of 200 to 1000 nM.

Regarding `Cn1cnnc1-c1cnn(C)c1-c1cc(O)nc(N2Cc3c(cc(CN4CCC5(CC5)C4)cc3C(F)(F)F)C2=O)c1` [ABE-1, 6-((5-Azaspiro [2.4]heptan-5-yl)methyl)-2-(6-hydroxy-4-(1-methyl-4-(4-methyl-4H-1,2,4-triazol-3-yl)-1H-pyrazol-5-yl)pyridin-2-yl)-4-(trifluoromethyl)isoindolin-1-one], the IC50 was in the range of 1000 to 10000 nM.

`CCNc1cc(-c2c(-c3nncn3C)cnn2C)cc(NC(=O)c2cc(CN3CCC4(CC4)C3)cc(C3CC3)n2)n1` [ABF-8, 4-((5-Azaspiro [2.4]heptan-5-yl)methyl)-6-cyclopropyl-N-(6-(ethylamino)-4-(1-methyl-4-(4-methyl-4H-1,2,4-triazol-3-yl)-1H-pyrazol-5-yl)pyridin-2-yl)picolinamide]: the IC50 was not above 200 nM.

In the case of `Cn1cnnc1-c1cnn(C)c1-c1cc(CN)nc(N2Cc3c(cccc3C(F)(F)F)C2=O)c1` [ABG-3, 2-(6-(Aminomethyl)-4-(1-methyl-4-(4-methyl-4H-1,2,4-triazol-3-yl)-1H-pyrazol-5-yl)pyridin-2-yl)-4-(trifluoromethyl)isoindolin-1-one], the IC50 lay within 10000 to 50000 nM.

For `CCOc1cc(-c2c(-c3nncn3C)cnn2C)cc(N2Cc3c(cccc3C(F)(F)F)C2=O)n1` [ABH-2, 2-(6-Ethoxy-4-(1-methyl-4-(4-methyl-4H-1,2,4-triazol-3-yl)-1H-pyrazol-5-yl)pyridin-2-yl)-4-(trifluoromethyl)isoindolin-1-one], the IC50 lay within 200 to 1000 nM.

On to `CC(C)Nc1cc(-c2c(-c3nncn3C)cnn2C)cc(N2Cc3c(cccc3C(F)(F)F)C2=O)n1` [ABI-1, 2-(6-(Isopropylamino)-4-(1-methyl-4-(4-methyl-4H-1,2,4-triazol-3-yl)-1H-pyrazol-5-yl)pyridin-2-yl)-4-(trifluoromethyl)isoindolin-1-one], for which the IC50 was not above 200 nM.

As for `CCNc1cc(-c2c(-c3nncn3C)cnn2C)cc(NC(=O)c2cc(C)nc(C3CC3)n2)n1` [ABJ-4, 2-Cyclopropyl-N-(6-(ethylamino)-4-(1-methyl-4-(4-methyl-4H-1,2,4-triazol-3-yl)-1H-pyrazol-5-yl)pyridin-2-yl)-6-methylpyrimidine-4-carboxamide], the IC50 was in the range of 200 to 1000 nM.

Consider `Cn1cnnc1-c1ccccc1-c1cccc(NC(=O)c2cc(OCCN3CCCC3)nc(C3CC3)n2)c1` [ABK-7, 2-Cyclopropyl-N-(2′-(4-methyl-4H-1,2,4-triazol-3-yl)-[1,1′-biphenyl]-3-yl)-6-(2-(pyrrolidin-1-yl)ethoxy)pyrimidine-4-carboxamide], for which the IC50 lay in the range of 200 to 1000 nM.

As for `CCNc1cc(-c2c(-c3nncn3C)cnn2C)cc(NC(=O)c2cc(=O)n(CCN3CCCC3)c(C3CC3)n2)n1` [ABL-4, 2-Cyclopropyl-N-(6-(ethylamino)-4-(1-methyl-4-(4-methyl-4H-1,2,4-triazol-3-yl)-1H-pyrazol-5-yl)pyridin-2-yl)-6-oxo-1-(2-(pyrrolidin-1-yl)ethyl)-1,6-dihydropyrimidine-4-carboxamide], the IC50 lay in the range of 10000 to 50000 nM.

For `Cn1cnnc1-c1ccccc1-c1cccc(NC(=O)c2cc(=O)n(CCN3CCCC3)c(C3CC3)n2)c1` [ABM-1, 2-Cyclopropyl-N-(2′-(4-methyl-4H-1,2,4-triazol-3-yl)-[1,1′-biphenyl]-3-yl)-6-oxo-1-(2-(pyrrolidin-1-yl)ethyl)-1,6-dihydropyrimidine-4-carboxamide], the concentration for half-maximal inhibition (IC50) lay in the range of 1000 to 10000 nM.

In the case of `CCNc1cc(-c2c(-c3nncn3C)cnn2C)cc(N2Cc3c(cc(CN4CC(F)C4)cc3C(F)(F)F)C2=O)n1` [ABN-2, 2-(6-(Ethylamino)-4-(1-methyl-4-(4-methyl-4H-1,2,4-triazol-3-yl)-1H-pyrazol-5-yl)pyridin-2-yl)-6-((3-fluoroazetidin-1-yl)methyl)-4-(trifluoromethyl)isoindolin-1-one], the IC50 was not above 200 nM.

Take `CCNc1cc(-c2c(-c3nncn3C)cnn2C)cc(N2Cc3c(cc(CN4CCC(F)C4)cc3C(F)(F)F)C2=O)n1` (centres unmarked) [ABP-3, 2-(6-(Ethylamino)-4-(1-methyl-4-(4-methyl-4H-1,2,4-triazol-3-yl)-1H-pyrazol-5-yl)pyridin-2-yl)-6-((3-fluoropyrrolidin-1-yl)methyl)-4-(trifluoromethyl)isoindolin-1-one]: the IC50 was not above 200 nM.

Take `CCNc1cc(-c2c(-c3nncn3C)cnn2C)cc(C(=O)O)n1` [ABQ-1, 6-(Ethylamino)-4-(1-methyl-4-(4-methyl-4H-1,2,4-triazol-3-yl)-1H-pyrazol-5-yl)picolinic acid]: the IC50 was in the range of 10000 to 50000 nM.

For the molecule `CCNc1cc(-c2ccccc2-c2nncn2C)cc(N2Cc3c(cc(CN4CCC5(CC5)C4)cc3C(F)(F)F)C2=O)n1` [ABR-1, 6-((5-Azaspiro [2.4]heptan-5-yl)methyl)-2-(6-(ethylamino)-4-(2-(4-methyl-4H-1,2,4-triazol-3-yl)phenyl)pyridin-2-yl)-4-(trifluoromethyl)isoindolin-1-one], the IC50 was not above 200 nM.

In the case of `Cn1cnnc1-c1ccccc1-c1cc(NCCO)nc(N2Cc3c(cccc3C(F)(F)F)C2=O)c1` [ABT-2, 2-(6-((2-Hydroxyethyl)amino)-4-(2-(4-methyl-4H-1,2,4-triazol-3-yl)phenyl)pyridin-2-yl)-4-(trifluoromethyl)isoindolin-1-one], the IC50 is 200 to 1000 nM.

As to `CCNc1cc(-c2c(-c3nncn3C)cnn2C)cc(NC(=O)c2cc(OCCN3CCCC3)nc(C3CC3)n2)n1` [ABU-2, 2-Cyclopropyl-N-(6-(ethylamino)-4-(1-methyl-4-(4-methyl-4H-1,2,4-triazol-3-yl)-1H-pyrazol-5-yl)pyridin-2-yl)-6-(2-(pyrrolidin-1-yl)ethoxy)pyrimidine-4-carboxamide], the IC50 was 200 to 1000 nM.

For `CCNc1cc(-c2c(-c3nncn3C)cnn2C)cc(CNC(=O)OC(C)(C)C)n1` [ABV-1, tert-Butyl ((6-(ethylamino)-4-(1-methyl-4-(4-methyl-4H-1,2,4-triazol-3-yl)-1H-pyrazol-5-yl)pyridin-2-yl)methyl)carba mate], the IC50 lay within 10000 to 50000 nM.

`CCNc1cc(-c2c(-c3nncn3C)cnn2C)cc(NC(=O)c2cc(C)cc(C3CC3)n2)n1` [ABW-3, 6-Cyclopropyl-N-(6-(ethylamino)-4-(1-methyl-4-(4-methyl-4H-1,2,4-triazol-3-yl)-1H-pyrazol-5-yl)pyridin-2-yl)-4-methylpicolinamide]: the IC50 was 200 to 1000 nM.

On to `CCNc1cc(-c2c(-c3nncn3C)cnn2C)cc(N2Cc3c(cccc3C(F)(F)F)C2=O)c1` [ABX-6, 2-[3-(Ethylamino)-5-[2-methyl-4-(4-methyl-1,2,4-triazol-3-yl)pyrazol-3-yl]phenyl]-4-(trifluoromethyl)-3H-isoindol-1-one], for which the IC50 was not above 200 nM.
